What was measured:
[1] = target: A/M2-V27A mutant channel (Influenza A virus, UniProt P0DOF5, V27A); type: cell-based
[2] = target: A/M2 S31N mutant (Influenza A virus, UniProt P0DOF5, S31N); type: cell-based

| Compound | percentage inhibition against V27A mutant of A/M2 ([1]; 100 µM) [%] | inhibitory effect on S31N mutant (in words) [2] | inhibitory effect on V27A mutant (in words) [1] |
| --- | --- | --- | --- |
| Cl.NC12CC3CC(CC(C3)C1)C2 [Amantadine, reference compound] | 0 |  |  |
| Cl.NC(CO)C12CC3CC(CC(C3)C1)C2 (stereo not drawn) [Compound 27] |  | no inhibitory effect | no inhibitory effect |

From publication PMC3116712 (ACS medicinal chemistry letters, 2011)
